Entries after “also recorded” stand apart in the source; their conditions may differ.
Experiments:
bovine cornea [1] = test: Whole eye experiment: Ca^2+ extraction from cornea, analysed by atomic absorption spectrometry; conditions: chelator 1 mg mL^−1 in PBS pH 7.4 ± 0.2, 3 h exposure of whole bovine eye cornea, 34 °C, n = 3; PBS alone 54.67 ± 7.04 ppm
Protocol: Calcium ion analysis was conducted using a novAA 350 system with […] software, version 4.5.0 (Analytik JENA, Germany). […] Quantitation achieved by reference to a calibration curve produced from Ca^2+ standards in ultrapure water incorporating 5% w/v lanthanum chloride as a releasing agent.

bovine cornea [2] = test: Transepithelial electrical resistance (TEER) of cornea in Ussing chambers; conditions: chelator 1 mg mL^−1 in PBS in donor chamber, 120 min, 34 °C, baseline deducted; initial 2.28 ± 0.06, PBS control 1.93 ± 0.04
bovine cornea epithelium = test: Corneal integrity: fluorescence microscopy of DAPI-stained cornea sections after exposure; conditions: chelator 1 mg mL^−1 in PBS pH 7.4 ± 0.2, 3 h exposure; PBS shows no disruption
Protocol: A Franz diffusion cell donor chamber was placed on the cornea as a means to contain the dose; the setup was wrapped in cling-film ensuring a good seal between the donor chamber and the cornea; these were placed in a water bath at 34 ± 1 °C. Individual eyes were exposed to PBS or solutions of EDTA, EGTA or EDDS at 1 mg mL^−1 in PBS, all at pH 7.4 ± 0.2 by placing 1 mL solution onto the cornea.
From the above experiment, corneas were dissected after exposure, and sections were prepared for microscopy by setting cornea segments in OCT, quick freezing on dry ice and subsequent sectioning. […] Specimens were stained using Vectashield with DAPI mounting medium, and a glass coverslip applied. All cornea sections were examined within seven days of preparation using an AXIOCAM MRm 1.3 MP digital camera attached to a Zeiss AXIO Imager A1 fluorescent microscope, using AXIO Vs 40 V.4.8.2.0 software (Zeiss, Oberkochen, Germany). A 10× magnification eyepiece together with a 5× magnification objective lens was employed, and DAPI fluorescence filter was selected.

[3] = Corneal permeability of riboflavin in Franz diffusion cells; assay type: in vitro ADME, bovine; design: Steady-state flux of riboflavin / Papp at 240 min: dose or concentration left out as unconfirmed; conditions: bovine, pH 7.4
Protocol: (§1) Analysis was conducted using a PerkinElmer series 200 HPLC system comprising of 785 A UV-vis detector, series 200 quaternary pump and series 200 autosampler (PerkinElmer Inc., UK), Hamilton PRP-1 reversed phase column, 150 mm × 4.1 mm, 10 μm (part number: 79425) and data acquisition software ([…], version 4.09, SRI Inc., USA). […] Bovine corneas were mounted in Franz diffusion cells (FDC), epithelium side facing the donor compartment. The receiver compartment was filled with pre-warmed and degassed PBS (16.5 mL). […] Riboflavin is known to be photodegradable ([Terekhova et al., 2011]), therefore the whole experiment was shielded with aluminium foil. Sink conditions were employed with 0.4 mL aliquots taken every 60 min for 240 min. HPLC analysis was carried out immediately after all samples had been collected to avoid drug degradation.

bovine cornea [4] = test: as above; assay type: in vitro ADME; design: Steady-state flux of riboflavin / Papp at 240 min: dose or concentration left out as unconfirmed
Protocol: as §1

bovine cornea [5] = test: Cornea extracts: riboflavin absorbed into cornea, ethanol extraction and HPLC; assay type: in vitro ADME; conditions: n = 3; for Riboflavin pg mg^−1 cornea: riboflavin in PBS pH 7.4 ± 0.2 without chelator
Protocol: Analysis was conducted using a PerkinElmer series 200 HPLC system comprising of 785 A UV–vis detector, series 200 quaternary pump and series 200 autosampler (PerkinElmer Inc., UK), Hamilton PRP-1 reversed phase column, 150 mm × 4.1 mm, 10 μm (part number: 79425) and data acquisition software (Peaksimple, version 4.09, SRI Inc., USA). […] Isocratic conditions were used at 25 °C with the mobile phase comprising of 20% ethanol and 80% ion-pair buffer, flow rate 0.8 mL min^−1, 10 μL injection volume, UV detector at 267 nm corresponding to riboflavin absorption λmax, a retention time of 3.05 min. Quantitation was achieved by reference to a calibration curve produced from riboflavin standards in PBS, pH 7.4 ± 0.2 at concentrations ranging from 0.01 to 25 μg mL^−1 (r^2 = 0.9996).
Corneas from the riboflavin permeability experiment were trimmed of sclera, gently blotted with tissue paper, weighed and placed in glass vials to which 5 mL absolute ethanol was added to extract absorbed riboflavin. Differences in its accumulation within the corneas between different solutions were compared. The vials were stored at room temperature shielded from light for three days. From these vials, 1 mL of extract solvent was centrifuged at 10,000 rpm for 10 min, and the supernatant transferred to autosample vials for HPLC analysis.

Compound | calcium sequestering performance from bovine cornea (Ca^2+ concentration in solution) (bovine cornea [1]) | TEER value after 2 h (bovine cornea [2]) | histological changes of corneal epithelium (bovine cornea epithelium) | Papp at 240 min [3] | concentration of riboflavin in the receiving solution at 240 min (bovine cornea [4]; riboflavin 0.1 mg mL^−1 in PBS pH 7.4 without chelator, 34 °C) | Steady-state flux of riboflavin (bovine cornea [4]; riboflavin solution in PBS without chelator) | mean amount of riboflavin extracted from cornea (bovine cornea [5]; corneas after permeability experiment, riboflavin 0.1 mg mL^−1 in PBS without chelator) | Riboflavin pg mg^−1 cornea (bovine cornea [5]) | Riboflavin pg mg^−1 cornea (bovine cornea [5]; listed as riboflavin)
O=C(O)CC(NCCNC(CC(=O)O)C(=O)O)C(=O)O (stereo not drawn) [EDDS, ethylenediamine-N,N′-disuccinic acid] | 87.60 ± 3.30 ppm | 1.62 ± 0.04 kΩ cm^2 | some swelling with voids throughout this layer |  |  |  |  |  | 
Cc1cc2nc3c(=O)[nH]c(=O)nc-3n(C[C@H](O)[C@H](O)[C@H](O)CO)c2cc1C [Riboflavin, riboflavin] |  |  |  | 1940 ± 325 ×10⁻⁶ cm/s | 5.74 ± 0.96 ng/mL | 0.0478 ± 0.0080 µmol/min | 50.41 ± 2.80 ng | 62.46 ± 0.98 pg/mg | 62.46 pg/mg
O=C(O)CN(CCN(CC(=O)O)CC(=O)O)CC(=O)O [EDTA, Ethylenediaminetetraacetic acid] | 98.97 ± 9.86 ppm | 1.38 ± 0.03 kΩ cm^2 | some swelling with voids throughout this layer; also recorded: perforation seems to penetrate the whole of the epithelium |  |  |  |  |  | 
O=C(O)CN(CCOCCOCCN(CC(=O)O)CC(=O)O)CC(=O)O [EGTA, ethylene glycol-bis(2-aminoethylether)-N,N,N′,N′-tetraacetic acid] | 119.57 ± 27.28 ppm | 1.42 ± 0.02 kΩ cm^2 | intense disruption to the superficial epithelial layers and a relatively undisturbed basal layer |  |  |  |  |  | 
